US20020026053A1, “Novel 3-(substituted) -2- indolinones compounds and use thereof as inhibitors of protein kinase activity” (priority 1997, published 2002)

tested on: PDGF-R; test: PDGF-R Assay (cellular ELISA, U1242 cells); format: cell-based; design: concentration or dose not given beside the values
Description: The cellular/catalytic assays described herein are performed in an ELISA format. The general procedure is as follows: a compound is introduced to cells expressing the test kinase, either naturally or recombinantly, for a selected period of time after which, if the test kinase is a receptor, a ligand known to activate the receptor is added. The cells are lysed and the lysate is transferred to the wells of an ELISA plate previously coated with a specific antibody recognizing the substrate of the enzymatic phosphorylation reaction. Non-substrate components of the cell lysate are washed away and the amount of phosphorylation on the substrate is detected with an antibody specifically recognizing phosphotyrosine compared with control cells that were not contacted with a test compound.
All cell culture media, glutamine, and fetal bovine serum can be purchased from Gibco Life Technologies (Grand Island, N.Y.) unless otherwise specified. All cells are grown in a humid atmosphere of 90-95% air and 5-10% CO2 at 37° C. All cell lines are routinely subcultured twice a week and are negative for mycoplasma as determined by the Mycotect method (Gibco).
For ELISA assays, cells (U1242, obtained from Joseph Schlessinger, NYU) are grown to 80-90% confluency in growth medium (MEM with 10% FBS, NEAA, 1 mM NaPyr and 2 mM GLN) and seeded in 96-well tissue culture plates in 0.5% serum at 25,000 to 30,000 cells per well. After overnight incubation in 0.5% serum-containing medium, cells are changed to serum-free medium and treated with test compound for 2 hr in a 5% CO2, 37° C. incubator. Cells are then stimulated with ligand for 5-10 minute followed by lysis with HNTG (20 mM Hepes, 150 mM NaCl, 10% glycerol, 5 mM EDTA, 5 mM Na3VO4, 0.2% Triton X-100, and 2 mM NaPyr). Cell lysates (0.5 mg/well in PBS) are transferred to ELISA plates previously coated with receptor-specific antibody and which had been blocked with 5% milk in TBST (50 mM Tris-HCl pH 7.2, 150 mM NaCl and 0.1% Triton X-100) at room temperature for 30 min. Lysates are incubated with shaking for 1 hour at room temperature. The plates are washed with TBST four times and then incubated with polyclonal anti-phosphotyrosine antibody at room temperature for 30 minutes. Excess anti-phosphotyrosine antibody is removed by rinsing the plate with TBST four times. Goat anti-rabbit IgG antibody is added to the ELISA plate for 30 min at room temperature followed by rinsing with TBST four more times. ABTS (100 mM citric acid, 250 mM Na2HPO4 and 0.5 mg/mL 2,2′-azino-bis (3-ethylbenzthiazoline-6-sulfonic acid)) plus H2O2 ([…] 30% H2O2 to 10 ml ABTS) is added to the ELISA plates to start color development. Absorbance at 410 nm with a reference wavelength of 630 nm is recorded about 15 to 30 min after ABTS addition.

Row | SMILES | PDGF Kinase % Inhibition (P.119) [%]
1 | Cc1c(Br)cc(Br)c2c1C(=C1C(=O)N(C)c3ccccc31)C(=O)N2 [10731/H10] | 40.3
2 | Cc1cn(C)cc1C=C1C(=O)Nc2c(Br)cc(Br)c(C)c21 [10726/H06] | −20.9
3 | Cc1c(Br)cc(Br)c2c1C(=Cc1cc(Br)ccc1O)C(=O)N2 [10733/H09] | 5.0
4 | COc1c(Br)cc(C=C2C(=O)Nc3c(Br)cc(Br)c(C)c32)cc1C(C)(C)C [10732/H07] | −22.0
5 | CCN(CC)c1ccc(C=C2C(=O)Nc3c(Br)cc(Br)c(C)c32)cc1 [10727/H02] | −33.6
6 | CCc1cc(CC)c(C=C2C(=O)Nc3c(Br)cc(Br)c(C)c32)[nH]1 [10727/H03] | −20.5
7 | Cc1c(Br)cc(Br)c2c1C(=Cc1ccncc1)C(=O)N2 [10729/H09] | 0.1
8 | Cc1c(Br)cc(Br)c2c1C(=Cc1ccc(OCc3ccccc3)c(C(C)(C)C)c1)C(=O)N2 [10732/H06] | −18.0
9 | C=C(C)C1CC=C(C=C2C(=O)Nc3c(Br)cc(Br)c(C)c32)CC1 (stereo not shown) [10731/H04] | −15.8
10 | Cc1c(Br)cc(Br)c2c1C(=Cc1coc3ccccc3c1=O)C(=O)N2 [10727/H07] | −37.2
11 | COc1ccc(C=C2C(=O)Nc3c(Br)cc(Br)c(C)c32)cc1C(C)(C)C [10732/H05] | −25.6
12 | Cc1cc(C=C2C(=O)Nc3c(Br)cc(Br)c(C)c32)cc(C)c1OCc1ccccc1 [10733/H07] | −19.0
13 | COc1cccc(OC)c1C=C1C(=O)Nc2c(Br)cc(Br)c(C)c21 [10728/H03] | −10.6
14 | Cc1c(Br)cc(Br)c2c1C(=C1C(=O)Nc3ccc(F)cc31)C(=O)N2 [10726/H08] | 15.1
15 | COc1ccc2[nH]cc(C=C3C(=O)Nc4c(Br)cc(Br)c(C)c43)c2c1 [10731/H09] | −5.4
16 | COc1ccc(C=C2C(=O)Nc3c(Br)cc(Br)c(C)c32)c2ccccc12 [10729/H03] | −0.7
